According to patent US20120059005A1, “COMBINATION OF (A) A PHOSPHOINOSITIDE 3-KINASE INHIBITOR AND (B) AN ANTIDIABETIC COMPOUND FOR USE IN THE TREATMENT OF PROLIFERATIVE DISEASES” (NOVARTIS AG, priority 2009, published 2012):
Read-outs that look alike come from different tables or passages of the source.

Legend:
[1] = tested on: H520 non-small cell lung tumors; assay: H520 xenograft 20-day tumor growth inhibition assay; type: in vivo, nude mice; conditions: for Mean Tumor Vol. Change / Regression / T/C: Day 20
Method: EGFR-null H520 human non-small cell lung cancer (NSCLC) cells are treated with different doses of 2-Methyl-2-[4-(3-methyl-2-oxo-8-quinolin-3-yl-2, 3-dihydro-imidazo[4,5-c]quinolin-1-yl)-phenyl]-propionitrile monotosylate salt (also known as COMPOUND A) or 5-(2,6-di-morpholin-4-yl-pyrimidin-4-yl)-4-trifluoromethyl-pyridin-2-ylamine hydrochloride salt (also known as COMPOUND C), a single dose of metformin or both agents in combination, The H520 human NSCLC cells (NCl-H520, ATCC-HTB-182, available from American Type Culture Collection, Rockville, Md. US) are isolated from a sample of a lung mass taken from a patient with squamous cell carcinoma of the lung (Banks-Schlegel et at Cancer Res, 45(3): 1187-1197 (1985).
H520 tumor cells are grown in RPMI 1640 medium containing 100 units/mL penicillin G sodium, 100 μg/ML streptomycin sulfate, and 25 µg/mL gentamicin. The medium is supplemented with 10% fetal bovine serum, 2 mM glutamine, and 1 mM sodium pyruvate, and buffered with 10 mM HEPES and 0.075% sodium bicarbonate. The cells are cultured in tissue culture flasks in a humidified incubator at 37° C., in an atmosphere of 5% CO2 and 95% air. The cells are harvested for injection into 8-week old female nu/nu (nude) mice (Harlan Laboratories, Indianapolis, Ind.) by detaching the monolayers with 1× trypsin and resuspending at 5×10^7cells/mL in phosphate-buffered saline containing 50% Matrigel.
(§1) 0.2 mL of H520 tumor cell suspension (1×10^7 cells) is injected subcutaneously in the right flank of 8-week old female nu/nu (nude) mice (Harlan Laboratories, Indianapolis, Ind.) having a body weight (BW) range of 18.1-26.9 g on Day 1 of the study. Tumors are monitored twice weekly and then daily as their mean volume approaches 120-180 mm^3. […] Tumor weight can be estimated with the assumption that 1 mg is equivalent to 1 mrn^3 of tumor volume.
(§2) The 11 groups of nude mice are treated as follows. One group of eight mice serves as Controls (C or Control) for all analyses and is administered intraperitoneally (i.p.) 50 mM sodium acetate at pH 4 (Vehicle 1) and then administered by oral gavage (p.o.) a composition comprising 10% N-methylpyrrolidone: 90% polyethylene glycol 300 (PEG 300) (Vehicle 2). […] Metformin is dissolved in 50 mM sodium acetate at pH 4 for dosing,
(§3) Compound C is stored at −20° C. protected from light. Stock solutions (10×) in 100% N-methylpyrrolidone (NMP) are prepared every five days, aliquotted, and stored in the dark at room temperature. On each treatment day, stock solution aliquots are diluted with polyethylene glycol (PEG300) to provide the formulated drug (Compound A or Compound C) in 10% NMP: 90% PEG300, Dosing solutions are protected from light and the formulated drug is administered within 1 hour after preparation.
(§4) For combination therapies, Compound A or Compound C is administered by oral gavage (p.o.) within 30 minutes after the intraperitoneal (i.p.) administration of metformin, except on Day 20 when Compound A or Compound C is given immediately after metformin.
(§5) Paclitaxel (Natural Pharmaceuticals, Inc., Beverly, Mass., USA) is administered by bolus tail-vein injections (i.v.) once daily on alternate days for five doses. Paclitaxel is dissolved in 50% ethanol and 50% Cremophor® EL to prepare a 10× stock solution stored at room temperature. On each day of dosing, an aliquot of the pad itaxel stock solution is diluted with 5% dextrose in water to yield a dosing solution containing 5% ethanol and 5% Cremophor® EL.
Statistical and graphical analyses was conducted by determining the difference in tumor volume between Day 1 (the start of dosing) and the endpoint day for each animal that remained on study on Day 20. Antitumor activity is expressed as % T/C (comparing the mean tumor volume change between the endpoint day and Day 1 for the treatment group to the Control). A T/C≦40% is classified as potential therapeutically active.

[2] = Method: as §1, §2, §3, §4, §5
[3] = Metformin 192.3 mg/kg i.p., 1x daily
[4] = Paclitaxel 30 mg/kg i.v., 1x on alternate days for 5 doses
[5] = Compound C 32.7 mg/kg p.o., 1x daily
[6] = Compound C 54.4 mg/kg p.o., 1x daily until day 7 (stopped due to toxicity)
[7] = Compound A 41.1 mg/kg p.o., 1x daily
[8] = Compound A 68.5 mg/kg p.o., 1x daily

SMILES: CN(C)C(=N)N=C(N)N [Metformin, dimethyldiguanide, reference compound]
- Mean Tumor Vol. Change [1, 3]: 1003 mm^3
- Regression [1, 3]: None
- T/C [1, 3]: 101% (ns^†)
- modulation of tumor growth in the 20-day tumor growth inhibition assay ([1]; metformin monotherapy at 192.3 mg/kg): did not appear to modulate tumor growth
- Dead/Total [2, 3]: 0/8

SMILES: CC(=O)O[C@H]1C(=O)[C@@]2(C)[C@H]([C@H](OC(=O)c3ccccc3)[C@]3(O)C[C@H](OC(=O)[C@H](O)[C@@H](NC(=O)c4ccccc4)c4ccccc4)C(C)=C1C3(C)C)[C@]1(OC(C)=O)CO[C@@H]1C[C@@H]2O [Paclitaxel, reference compound]
- Mean Tumor Vol. Change [1, 4]: 53 mm^3
- Regression [1, 4]: None
- T/C [1, 4]: 5%
- T/C ([1]; Paclitaxel 30 mg/kg i.v., 1x on alternate days for 5 doses, listed as paclitaxel): 5%
- Dead/Total [2, 4]: 0/8

SMILES: Nc1cc(C(F)(F)F)c(-c2cc(N3CCOCC3)nc(N3CCOCC3)n2)cn1 [Compound C, 5-(2,6-di-morpholin-4-yl-pyrimidin-4-yl)-4-trifluoromethyl-pyridin-2-ylamine]
- Mean Tumor Vol. Change [1, 5]: 542 mm^3
- Regression [1, 5]: None
- T/C [1, 5]: 54% (ns^†)
- Mean Tumor Vol. Change [1, 6]: 475 mm^3
- Regression [1, 6]: None
- T/C ([1]; Compound C 54.4 mg/kg p.o., 1x daily until day 7 (stopped due to toxicity), not evaluable (ne)): 48% (ne)

SMILES: Cn1c(=O)n(-c2ccc(C(C)(C)C#N)cc2)c2c3cc(-c4cnc5ccccc5c4)ccc3ncc21 [Compound A, 2-Methyl-2-[4-(3-methyl-2-oxo-8-quinolin-3-yl-2,3-dihydro-imidazo[4,5-c]quinolin-1-yl)-phenyl]-propionitrile]
- Mean Tumor Vol. Change [1, 7]: 598 mm^3
- Regression [1, 7]: None
- T/C [1, 7]: 60% (ns^†)
- Mean Tumor Vol. Change [1, 8]: 466 mm^3
- Regression [1, 8]: None
- T/C [1, 8]: 47% (ns^†)
- Dead/Total ([2]; female, nu/nu (nude), mouse, in vivo, po, 41.1 mg/kg): 0/8
- Dead/Total ([2]; female, nu/nu (nude), mouse, in vivo, po, 68.5 mg/kg): 1/8
- Mean Body Weight Change ([2]; mouse, in vivo, po, 68.5 mg/kg): −1.3%, Day 7
